Measured values: publication doi:10.1101/2022.01.05.475095v1 (biorxiv, 2022)
Like-named read-outs stand apart in the source and are kept apart here.

Columns and labels:
SARS-CoV-2 Mpro [1] = target: T1, SARS-CoV-2 Mpro (Severe acute respiratory syndrome coronavirus 2, UniProt P0DTD1); test: biochemical; conditions: read-out: % inhibition at 10 μM
SARS-CoV-2 Mpro [2] = target: T1, SARS-CoV-2 Mpro; test: biochemical; conditions: read-out: Mpro % inhibition at 10 µM
SARS-CoV-2 Mpro [3] = target: T1, SARS-CoV-2 Mpro; test: fluorogenic quenched peptide cleavage assay; format: biochemical

SMILES	inhibition at 10 µM (SARS-CoV-2 Mpro [1]) [%]	inhibition at 10 µM (SARS-CoV-2 Mpro [2]) [%]	IC50 (SARS-CoV-2 Mpro [3]) [nM]
CC(=O)c1ccc(N(Cc2cn(S(=O)(=O)c3ccc(C)cc3)nn2)C2=CC(=O)c3ccccc3C2=O)cc1 [compound 318, 318]	45 ± 13	–	–
Cc1ccc(S(=O)(=O)n2cc(CNC3=C(Cl)C(=O)c4ccccc4C3=O)nn2)cc1 [compound 320, 320]	–	11 ± 6	–
O=C1C(Sc2ccc(Br)cc2)=C(Sc2ccc(Br)cc2)C(=O)c2ccccc21 [compound 380, 380]	–	12 ± 3	–
CC1(C)OC2=C(C(=O)C(=O)c3ccccc32)C1n1cc(CNC2=C(Br)C(=O)c3ccccc3C2=O)nn1 (stereo not shown) [compound 191]	–	55 ± 3	–
CC1(C)OC2=C(CC1Br)C(=O)C(=NNc1ccccc1)c1ccccc12 (stereo not shown) [compound 666, 666]	–	5 ± 5	–
Cc1ccc(S(=O)(=O)n2cc(CNC3=CC(=O)c4ccccc4C3=O)nn2)cc1 [compound 319]	–	5 ± 2	–
CC(=O)NC1=CC(=O)c2cccc(O)c2C1=O [compound 414, 414]	–	29 ± 2	–
COc1ccc(SC2=C(Sc3ccc(OC)cc3)C(=O)c3ccccc3C2=O)cc1 [compound 382, 382]	–	–	410 ± 20
CC1(C)OC2=C(C(=O)C(=O)c3ccccc32)C1n1cc(CNC2=CC(=O)c3ccccc3C2=O)nn1 (stereo not shown) [compound 189]	–	25 ± 2	–
Cc1ccc(S(=O)(=O)n2cc(CN(C3=CC(=O)c4ccccc4C3=O)c3ccc(Br)cc3)nn2)cc1 [compound 314]	–	36 ± 2	–
Cc1ccc(S(=O)(=O)n2cc(CNC3=C(Br)C(=O)c4ccccc4C3=O)nn2)cc1 [compound 321, 321]	–	40 ± 8	–
CC1(C)OC2=C(C(=O)C(=O)c3ccccc32)C1n1cc(-c2ccccc2)nn1 (stereo not shown) [compound 159]	–	35 ± 1	–
CC1(C)CC2=C(O1)c1ccccc1C(=NNc1ccccc1)C2=O [compound 673, 673]	–	8 ± 3	–
CC(=O)NC1=CC(=O)c2c(cccc2[N+](=O)[O-])C1=O [compound 415, 415]	–	100	5000 ± 200
Cc1ccc(S(=O)(=O)c2cccc3c2C(=O)c2ccccc2C3=O)cc1 [compound 477, 477]	–	5 ± 2	–
COc1ccc(SC2=C(Sc3ccc(OC)cc3)C(=O)c3ccccc3C2=O)cc1 [compound 382]	–	100	–
O=C1C(Sc2ccccc2)=C(Sc2ccccc2)C(=O)c2ccccc21 [compound 379, 379]	–	–	630 ± 40
O=C1C(Sc2ccccc2)=C(Sc2ccccc2)C(=O)c2ccccc21 [compound 379]	–	100	–
